Measurements: BindingDB's records for doi:10.1016/j.ejmech.2017.05.061 (The University of Queensland, 2017)

Legend:
[1] = biological target: T1, Metallo-beta-lactamase AIM-1 (Pseudomonas aeruginosa, UniProt B5DCA0); assay: Competitive inhibition of Pseudomonas aeruginosa recombinant AIM1 expressed in Escherichia coli BL21(DE3) using cefuroxime as substrate by UV/Vis multi-plate spectrophotometric method
T1 sequence (B5DCA0 whole entry): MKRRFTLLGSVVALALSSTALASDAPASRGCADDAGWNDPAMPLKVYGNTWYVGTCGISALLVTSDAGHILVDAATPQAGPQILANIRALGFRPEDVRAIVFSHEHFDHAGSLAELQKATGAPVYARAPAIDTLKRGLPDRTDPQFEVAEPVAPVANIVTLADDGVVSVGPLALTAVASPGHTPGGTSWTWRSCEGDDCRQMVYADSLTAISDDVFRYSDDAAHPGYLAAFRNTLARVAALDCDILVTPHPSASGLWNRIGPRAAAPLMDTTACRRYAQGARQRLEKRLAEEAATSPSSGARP

[2] = biological target: Metallo-beta-lactamase type 2 (Aeromonas hydrophila, UniProt P26918); assay: Competitive inhibition of Aeromonas hydrophila recombinant CphA expressed in Escherichia coli BL21(DE3) using meropenem as substrate by UV/Vis multi-plate spectrophotometric method
Sequence of Metallo-beta-lactamase type 2 (P26918 whole entry): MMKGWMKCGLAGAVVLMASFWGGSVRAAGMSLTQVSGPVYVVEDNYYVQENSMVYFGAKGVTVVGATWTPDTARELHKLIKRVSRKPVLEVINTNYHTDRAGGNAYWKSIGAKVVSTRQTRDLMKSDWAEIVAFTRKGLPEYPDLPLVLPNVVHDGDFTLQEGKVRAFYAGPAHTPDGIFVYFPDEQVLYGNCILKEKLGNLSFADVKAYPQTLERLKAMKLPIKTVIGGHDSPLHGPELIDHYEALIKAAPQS

Ki [1]	Ki [2]	Structure (SMILES)
2.2 µM	52 µM	N#Cc1c(-c2ccccc2)c(-c2ccccc2)n(Cc2ccccc2)c1N
1.6 µM	11 µM	N#Cc1c(-c2ccccc2)c(-c2ccccc2)n(Cc2ccccc2)c1NC(=O)c1ccccc1
	872 µM	N#Cc1c(-c2ccccc2)c(-c2ccccc2)n(Cc2ccccc2)c1NC(=O)c1ccc(C(=O)c2ccccc2)cc1

Structure (SMILES)	Ki [1]	Ki [2]
N#Cc1c(-c2ccccc2)c(-c2ccccc2)n(Cc2ccccc2)c1NC(=O)c1ccc([N+](=O)[O-])cc1	10.9 µM	
